A value given as a limit tells only on which side of the number the result lay.

For data set [1], the system named is U-87 MG. Put plainly: Dark toxicity against human U-87 MG cells incubated for 48 hrs by Alamar blue assay. It is filed as cell-based, U-87MG ATCC. In general terms: Alamar Blue is a resazurin reagent that responds to reducing activity.
The nature of data set [2]: Phototherapeutic index, ratio of IC50 for dark cytotoxicity against human U-87 MG cells to IC50 for light cytotoxicity against human U-87 MG cells preincubated for 6 to 24 hrs followed by light irradiation for 20 min and measured after 24 hrs dark incubation by Alamar blue assay. It is filed as cell-based, U-87MG ATCC. To be noted: time 6-24 hrs, read-out: Ratio IC50.

The nature of data set [3]: Drug localization in kidney of CD-1 mouse at 25 nmol, iv measured after 4 hrs by fluorescence imaging analysis. It is filed as ADME, organism-based. The conditions noted are these: in vivo.
Data set [4] in a line: Clearance in CD-1 mouse at 25 nmol, iv measured upto 480 mins by UV-Vis spectrophotometer method. The conditions noted are these: in vivo. The data set is classed as ADME, organism-based.
Data set [5] is described as follows: Terminal half life in CD-1 mouse at 25 nmol, iv measured upto 480 mins by UV-Vis spectrophotometer method. It is filed as ADME, organism-based. To be noted: in vivo, read-out: beta t1/2.
A short description of data set [6]: Drug localization in lungs of CD-1 mouse at 25 nmol, iv measured after 4 hrs by fluorescence imaging analysis. The data set is classed as ADME, organism-based, Lung. The conditions noted are these: in vivo.
For data set [7], the system named is Mus musculus. Put plainly: Antitumor activity against mouse implanted with mouse NIT-1 cells assessed as tumor to background ratio at 35 nmol, iv incubated for 4 hrs by fluorescence imaging analysis. The data set is classed as functional.
The nature of data set [8]: Drug localization in liver of CD-1 mouse at 25 nmol, iv measured after 4 hrs by fluorescence imaging analysis. It is filed as ADME, organism-based. To be noted: in vivo.
The nature of data set [9]: Biodistribution in lymph node of mouse implanted with mouse NIT-1 cells at 35 nmol, iv incubated for 4 to 8 hrs by fluorescence imaging analysis. The data set is classed as ADME, organism-based. The conditions noted are these: in vivo, time 4-8 hrs.
Data set [10] in a line: Biodistribution in bone marrow of mouse implanted with mouse NIT-1 cells at 35 nmol, iv incubated for 4 to 8 hrs by fluorescence imaging analysis. The data set is classed as ADME, organism-based. The conditions noted are these: in vivo, time 4-8 hrs.
A short description of data set [11]: Biodistribution in peripheral tissue of mouse implanted with mouse NIT-1 cells at 35 nmol, iv incubated for 4 to 8 hrs by fluorescence imaging analysis. The data set is classed as ADME, organism-based. To be noted: in vivo, time 4-8 hrs.
Data set [12] in a line: Drug localization in duodenum of CD-1 mouse at 25 nmol, iv measured after 4 hrs by fluorescence imaging analysis. It is filed as ADME, organism-based. To be noted: in vivo.
The nature of data set [13]: Half life in CD-1 mouse blood at 25 nmol, iv measured upto 480 mins by UV-Vis spectrophotometer method. It is filed as ADME, organism-based.

As for `CC1(C)C(/C=C/C2=C(Cl)C(=C/C=C3/N(CCCCCC(=O)O)c4ccccc4C3(C)C)/CCC2)=[N+](CCCCCC(=O)O)c2ccccc21`, in [1], the half-maximal inhibitory concentration (IC50) (usually the midpoint of a concentration-inhibition curve) worked out at 19.2 µM.

As to `CC1(C)C(/C=C/C2=C(Cl)C(=C/C=C3/N(CCCCCC(=O)O)c4ccc(I)cc4C3(C)C)/C[N+](C)(C)C2)=[N+](CCCCCC(=O)O)c2ccc(I)cc21`, the selectivity ratio at 24 h in data set [2] came out at 72.8. Moreover, the Drug uptake entry in data set [3] is recorded as “Active”; in [6], “Not Active”; in [8], “Active”; in [9], “Active”; in data set [10], “Active”. In [1], this molecule showed an IC50 of 62.4 µM. The clearance (usually a measure of how efficiently the substance is removed, as volume per time) in [4] amounted to 5 mL/min/kg. Further, the half-life in data set [5] amounted to 0.917 h. In [7], the Ratio was determined as 8.98.

On to `CC1(C)C(/C=C/C2=C(Cl)C(=C/C=C3/N(CCCCCC(=O)O)c4ccccc4C3(C)C)/C[N+](C)(C)C2)=[N+](CCCCCC(=O)O)c2ccccc21`, for which, in [1], the IC50 was more than 100 µM.

Turning to `CC1(C)C(/C=C/C2=C(Cl)C(=C/C=C3/N(CCCCCC(=O)O)c4ccc(I)cc4C3(C)C)/CCC2)=[N+](CCCCCC(=O)O)c2ccc(I)cc21`, the selectivity ratio at 24 h in data set [2] was 2.56. The molecule further had an IC50 in data set [1] of 11.4 µM. The Drug uptake result in data set [11], in data set [12] and in [8] was “Active” throughout. The same molecule came in with a clearance in data set [4] of 0.2 mL/min/kg. In [7], the Ratio is reported as 6.5. Besides, the half-life in data set [13] worked out at 1.93 h.

The values are drawn from ChEMBL document CHEMBL5036372, “QuatCy-I2 and MHI-I2 in Photodynamic Therapy” (ACS Med Chem Lett, 2022).
